# Test system: QDJ1 (model quadruplex-duplex junction) (DNA, G4) GGTTGGCGCGAAGCATTCGCGGGTTGG
# Assay: NMR ligand protection (53-compound library, HSQC difference)
# Details: 20 mM KCl; 20 mM K2HPO4, pH 7.0; 30 μM DNA
structure (smiles),measurement,value
NCc1cc(CN)cc(CN)c1,binding,yes
